This note sets out measurements from patent US20250051355A1, “COMPOUNDS, COMPOSITIONS, AND METHODS” (ACONCAGUA BIO, INC., priority 2023, published 2025).

Test [1] has as its target T1, human calcitonin receptor (CTR) (Homo sapiens, UniProt P30988).
T1 construct: expressed in transfected cells; host or cells: COS-7 (COS7-human CTR Clone #2)
T1 sequence (P30988 25-474): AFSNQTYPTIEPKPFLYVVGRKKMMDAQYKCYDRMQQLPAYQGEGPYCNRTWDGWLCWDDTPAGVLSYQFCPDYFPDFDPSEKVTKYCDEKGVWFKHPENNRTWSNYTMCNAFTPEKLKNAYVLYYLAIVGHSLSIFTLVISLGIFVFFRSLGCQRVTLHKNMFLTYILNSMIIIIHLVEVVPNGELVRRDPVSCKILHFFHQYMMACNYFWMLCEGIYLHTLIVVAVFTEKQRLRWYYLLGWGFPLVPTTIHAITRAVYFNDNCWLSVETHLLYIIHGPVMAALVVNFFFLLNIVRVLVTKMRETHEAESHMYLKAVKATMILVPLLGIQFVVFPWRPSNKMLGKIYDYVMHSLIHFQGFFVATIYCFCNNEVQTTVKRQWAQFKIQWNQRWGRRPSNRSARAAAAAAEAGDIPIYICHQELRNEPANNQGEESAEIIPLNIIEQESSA
The test is described as follows: Calcitonin receptor (CTR) cAMP Assay. The following applies: COS7-human CTR Clone #2 cells, cAMP dynamic 2 kit; read-out: Calcitonin Receptor cAMP Stimulation Activity: EC50. The format is cell-based. The gist of the method:
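COS-7 cells stably expressing human CTR (2000 cells/well) treated with 4-fold serially diluted compounds in HBSS/20 mM HEPES/0.5 mM IBMX/0.1% casein, 30 min at 37° C. cAMP quantified by HTRF (cAMP-d2 plus anti-cAMP cryptate, 1 h RT), fluorescence read at 665 and 615 nm.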

Test [2] has as its target human calcitonin receptor (CTR) and RAMP3 (AMY3) (Homo sapiens, UniProt O60896+P30988). The test is described as follows: Amylin Receptor cAMP Assay II. The format is cell-based. The following applies: COS-7/AMY3 cells, cAMP dynamic 2 kit, read-out: Amylin Receptor cAMP Stimulation Activity: EC50. In short, it runs like this:
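COS-7 cells stably co-expressing human CTR and RAMP3 (AMY3) were treated with 4-fold serially diluted compounds at 2000 cells/well in HBSS with 20 mM HEPES, 0.5 mM IBMX and 0.1% casein for 30 min at 37 °C. cAMP was measured by HTRF (cAMP-d2 plus anti-cAMP cryptate, 1 h at RT) with reads at 665/615 nm.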

human calcitonin receptor (CTR) and RAMP3 (AMY3), sequence (O60896 24-148, one chain of several): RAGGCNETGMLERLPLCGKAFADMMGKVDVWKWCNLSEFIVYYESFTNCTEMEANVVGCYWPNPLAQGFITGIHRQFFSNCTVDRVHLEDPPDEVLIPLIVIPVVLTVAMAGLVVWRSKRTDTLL

By EC50 is commonly meant the midpoint of the concentration-response curve. Turning to `CC(C)C1CS(=O)(=O)c2c1nc(CCC1CCOCC1)c(-c1nnc(CN(C)C)o1)c2-c1cc2ccnc(N[C@@H]3CCc4ncccc43)c2s1` (stereo partly drawn) [Compound 117, 7-(7-[(R)-4-aza-1-indanylamino]-1-thia-6-aza-2-indenyl}-6-(5-[(dimethylamino)methyl]-1,3,4-oxadiazol-2-yl}-3-isopropyl-5-[2-(tetrahydro-2H-pyran-4-yl)ethyl]-1λ^8-thia-4-aza-1,1-indandione], the figures for the EC50 in test [1] and in test [2] were 0.00993 µM and 0.257 µM, respectively.

`Cc1ccnc(-c2c(CCC3CCOCC3)nc3c(c2-c2cc4ccnc(N[C@@H]5CCc6ncccc65)c4s2)S(=O)(=O)CC3C(C)C)c1` (stereo partly drawn) [Compound 118, N—(R)-4-aza-1-indanyl(2-(3-isopropyl-6-(4-methyl-2-pyridyl)-1,1-dioxo-5-[2-(tetrahydro-2H-pyran-4-yl)ethyl]-11′-thia-4-aza-7-indanyl}-1-thia-6-aza-7-indenyl)amine]: the figures for the EC50 in test [1] and in test [2] were 0.0728 µM and 0.449 µM, respectively.

`CC(C)C1CS(=O)(=O)c2c1nc(CCC1CCOCC1)c(-c1nnc[nH]1)c2-c1cc2ccnc(N[C@@H]3CCc4ncccc43)c2s1` (stereo partly drawn) [Compound 119, 7-(7-(((R)-6,7-dihydro-5H-cyclopenta[b]pyridin-5-yl)amino)thieno[2,3-c]pyridin-2-yl)-3-isopropyl-5-(2-(tetrahydro-2H-pyran-4-yl)ethyl)-6-(4H-1,2,4-triazol-3-yl)-2,3-dihydrothieno[3,2-b]pyridine 1,1-dioxide]: the EC50 in test [1] worked out at 0.0116 µM; in test [2], 0.0683 µM.

With `CC(C)C1CS(=O)(=O)c2c1nc(CCC1CCOCC1)c(-c1nnc(N)o1)c2-c1cc2ccnc(N[C@@H]3CCc4ncccc43)c2s1` (stereo partly drawn) [Compound 120, 7-{7-[(R)-4-aza-1-indanylamino]-1-thia-6-aza-2-indenyl}-6-(5-amino-1,3,4-oxadiazol-2-yl)-3-isopropyl-5-[2-(tetrahydro-2H-pyran-4-yl)ethyl]-1λ^6-thia-4-aza-1,1-indandione], the values for the EC50 in test [1] and in test [2] were 0.0102 µM and 0.0553 µM, respectively.

In the case of `COc1noc(-c2c(CCC3CCOCC3)nc3c(c2-c2cc4ccnc(N[C@@H]5CCc6ncccc65)c4s2)S(=O)(=O)CC3C(C)C)n1` (stereo partly drawn) [Compound 121, N—(R)-4-aza-1-indanyl(2-(3-isopropyl-6-(3-methoxy-1,2,4-oxadiazol-5-yl)-1,1-dioxo-5-[2-(tetrahydro-2H-pyran-4-yl)ethyl]-1λ^6-thia-4-aza-7-indanyl}-1-thia-6-aza-7-indenyl)amine], the EC50 in test [1] turned out to be 0.0492 µM; in test [2], 0.272 µM.

Turning to `Cc1nnc(-c2c(CCC3CCOCC3)nc3c(c2-c2ccn4c(Cc5ccc(F)c(F)c5)cnc4c2)S(=O)(=O)CC3C(C)C)o1` (stereo not shown) [Compound 122, 7-(3-[(3,4-difluorophenyl)methyl]-1,3a-diaza-6-indenyl}-3-isopropyl-6-(5-methyl-1,3,4-oxadiazol-2-yl)-5-[2-(tetrahydro-2H-pyran-4-yl)ethyl]-1λ^6-thia-4-aza-1,1-indandione], the EC50 in test [1] amounted to 0.0492 µM; in test [2] it was 1.54 µM.

Turning to `COc1nnc(-c2c(CCC3CCOCC3)nc3c(c2-c2cc4ccnc(N[C@@H]5CCc6ncccc65)c4s2)S(=O)(=O)CC3C(C)C)o1` (stereo partly drawn) [Compound 123, N—(R)-4-aza-1-indanyl(2-(3-isopropyl-6-(5-methoxy-1,3,4-oxadiazol-2-yl)-1,1-dioxo-5-[2-(tetrahydro-2H-pyran-4-yl)ethyl]-1λ^6-thia-4-aza-7-indanyl}-1-thia-6-aza-7-indenyl)amine], the EC50 worked out at 0.135 µM in test [1] and 4.38 µM in test [2].

On to `Cc1nnc(-c2c(CCC3CCOCC3)nc3c(c2-c2cnc4c(ccn4Cc4ccc(C#N)cn4)c2)C(=O)N2CCC[C@@H]32)o1` [Compound 124, 6-[(5-((2S)-10-(5-methyl-1,3,4-oxadiazol-2-yl)-7-oxo-11-[2-(tetrahydro-2H-pyran-4-yl)ethyl]-6,12-diazatricyclo[6.4.0.0,^1I]dodeca-1(12),8,10-trien-9-yl}-1H-1,7-diazainden-1-yl)methyl]nicotinonitrile], for which the EC50 in test [1] was 0.216 µM; in test [2], 2.7 µM.

Take `Cc1nnc(-c2c(CCC3CCOCC3)nc3c(c2-c2ccc4c(c2)oc(=O)n4Cc2ccc(C#N)cn2)C(=O)N2CCC[C@@H]32)o1` [Compound 125, 6-[(6-((2S)-10-(5-methyl-1,3,4-oxadiazol-2-yl)-7-oxo-11-[2-(tetrahydro-2H-pyran-4-yl)ethyl]-6,12-diazatricyclo[6.4.0.0^2,6,]dodeca-1(12),8,10-trien-9-yl}-2-oxo-1,3-benzoxazol-3-yl)methyl]nicotinonitrile]: the EC50 was found to be 0.00663 µM in test [1] and 0.174 µM in test [2].

As for `Cc1nnc(-c2c(CCC3CCOCC3)nc3c(c2-c2cnc4c(ccn4Cc4ccc(C#N)c(F)c4)c2)S(=O)(=O)N2CCC[C@@H]32)o1` [Compound 126, 4-[(5-{(2S)-10-(5-methyl-1,3,4-oxadiazol-2-yl)-7,7-dioxo-11-[2-(tetrahydro-2H-pyran-4-yl)ethyl]-7λ^6-thia-6,12-diazatricyclo[6.4.0.0^2,6]dodeca-1(12),8,10-trien-9-yl}-1H-1,7-diazainden-1-yl)methyl]-2-fluorobenzonitrile], the EC50 in test [1] is 0.0117 µM; in test [2], 0.128 µM.

Regarding `Cc1nnc(-c2c(CCC3CCOCC3)nc3c(c2-c2ccc4c(c2)oc(=O)n4Cc2ccc(C#N)cn2)S(=O)(=O)N2CCC[C@@H]32)o1` [Compound 127, 6-[(6-{(2S)-10-(5-methyl-1,3,4-oxadiazol-2-yl)-7,7-dioxo-11-[2-(tetrahydro-2H-pyran-4-yl)ethyl]-7λ^6-thia-6,12-diazatricyclo[6.4.0.0^2,6]dodeca-1(12),8,10-trien-9-yl}-2-oxo-1,3-benzoxazolidin-3-yl)methyl]nicotinonitrile], the EC50 in test [1] was determined as 0.00386 µM; in test [2] it was 0.209 µM.

Take `Cc1nnc(-c2c(CCC3CCOCC3)nc3c(c2-c2cnc4c(ccn4Cc4ccc(C#N)cn4)c2)S(=O)(=O)CC3C(C)C)o1` (stereo not shown) [Compound 128, 6-[(5-(3-isopropyl-6-(5-methyl-1,3,4-oxadiazol-2-yl)-1,1-dioxo-5-[2-(tetrahydro-2H-pyran-4-yl)ethyl]-1-thia-4-aza-7-indanyl}-1H-1,7-diazainden-1-yl)methyl]nicotinonitrile]: the concentration for a half-maximal effect (EC50) in test [1] was 0.12 µM; in test [2], 1.54 µM.

On to `Cc1nnc(-c2c(CCC3CCOCC3)nc3c(c2-c2ccc4c(c2)oc(=O)n4Cc2ccc(C#N)cn2)S(=O)(=O)CC3C(C)C)o1` (stereo not shown) [Compound 129, 6-[(6-(3-isopropyl-6-(5-methyl-1,3,4-oxadiazol-2-yl)-1,1-dioxo-5-[2-(tetrahydro-2H-pyran-4-yl)ethyl]-1λ^6-thia-4-aza-7-indanyl}-2-oxo-1,3-benzoxazol-3-yl)methyl]nicotinonitrile], for which the EC50 in test [1] was 0.00446 µM; in test [2], 0.211 µM.

For `Cc1nnc(-c2c(CCC3CCOCC3)nc3c(c2-c2ccc4nn(Cc5ccc(C#N)c(F)c5)cc4c2)C(=O)N2CCOC[C@@H]32)o1` [Compound 130, 4-[(5-((4aR,9aR)-7-(5-methyl-1,3,4-oxadiazol-2-yl)-9-oxo-6-[2-(tetrahydro-2H-pyran-4-yl)ethyl]-1,2,4,4a-tetrahydro-9H-3-oxa-5,9a-diazafluoren-8-yl}-2H-indazol-2-yl)methyl]-2-fluorobenzonitrile], the figures for the EC50 in test [1] and in test [2] were 0.186 µM and 2.31 µM, respectively.

With `Cc1nnc(-c2c(CCC3CCOCC3)nc3c(c2-c2cc4ccnc(NCc5ccc(C#N)nc5)c4s2)S(=O)(=O)CC3C(C)C)o1` (stereo not shown) [Compound 131, 5-[(2-(3-isopropyl-6-(5-methyl-1,3,4-oxadiazol-2-yl)-1,1-dioxo-5-[2-(tetrahydro-2H-pyran-4-yl)ethyl]-1λ^6-thia-4-aza-7-indanyl}-1-thia-6-aza-7-indenylamino)methyl]-2-pyridinecarbonitrile], the EC50 in test [1] was found to be 0.332 µM; in test [2], 1.49 µM.

For `Cc1nnc(-c2c(CCC3CCOCC3)nc3c(c2-c2cc4ccnc(NCc5cnc(C#N)c(F)c5)c4s2)S(=O)(=O)CC3C(C)C)o1` (stereo not shown) [Compound 133, 3-fluoro-5-[(2-(3-isopropyl-6-(5-methyl-1,3,4-oxadiazol-2-yl)-1,1-dioxo-5-[2-(tetrahydro-2H-pyran-4-yl)ethyl]-1λ^6-thia-4-aza-7-indanyl}-1-thia-6-aza-7-indenylamino)methyl]-2-pyridinecarbonitrile], the EC50 in test [1] was determined as 0.0422 µM; in test [2], 0.243 µM.

In the case of `Cc1nnc(-c2c(CCC3CCOCC3)nc3c(c2-c2cc4ccnc(NCc5ccc(C#N)c(F)n5)c4s2)S(=O)(=O)CC3C(C)C)o1` (stereo not shown) [Compound 134, 2-fluoro-6-[(2-(3-isopropyl-6-(5-methyl-1,3,4-oxadiazol-2-yl)-1,1-dioxo-5-[2-(tetrahydro-2H-pyran-4-yl)ethyl]-1-2-thia-4-aza-7-indanyl}-1-thia-6-aza-7-indenylamino)methyl]nicotinonitrile], the EC50 in test [1] amounted to 0.235 µM; in test [2], 1.49 µM.
